# From patent publication US20250352488A1, “IONIZABLE LIPIDS AND NANOPARTICLES COMPRISING SAME” (MANA BIO LTD., priority 2022, published 2025)
# What was measured:
# BALB/c mouse = assay: in vivo expression distribution of encapsulated mRNA F-LUC (IVIS imaging, ex-vivo tissue analysis); details: intravenous, 13 μg/mouse
# Protocol: (§1) The inventors determined the expression distribution of the exemplary LNPs in vivo by assessing expression of the encapsulated mRNA (mRNA F-LUC). The LNPS of the invention encapsulating mRNA F-LUC have been injected intravenously into a BALB/c mouse, at a dosage of 13 μg/mouse (0.52-0.65 mg/kg). In-vivo imaging were done by IVIS imaging. Ex-vivo tissue analysis was done for lung, heart, spleen, kidney, and liver using IVIS. Histology assessment was determined by H&E staining with pathologist report for toxicity. Histology assessment concluded normal morphology without any treatment related pathological changes.
# as §1, with “LNPs” for “LNPS”
# lung cells = assay: cell-based studies of specificity to lung cells; details: LNPs containing the compound as ionizable lipid; compared to a similar composition comprising Dlin-MC3-DMA
# cells = assay: cell-penetration of LNPs and intracellular delivery of mRNA; assay type: cell-based; details: LNPs containing the compound as ionizable lipid; compared to a similar composition comprising Dlin-MC3-DMA
# Protocol: The inventors determined cell-penetration of the exemplary LNPs and intracellular delivery of mRNA.
# More specifically, particles were incubated on cells for 16-24 hrs at 37° C. under 5% CO2 and expression levels were measured. Formulations were compared to Lipofectamine control and to MC3 control, as well as to untreated controls.
SMILES,lung specificity of the LNP (BALB/c mouse),specificity to the lung cells (lung cells),internalization efficiency (cells)
CCCCCCCCOCC(O)CN(CCCCCCCCN(CC(O)COCCCCCCCC)CC(O)COCCCCCCCC)CC(O)COCCCCCCCC (centres unmarked) [MB-222],enhanced lung specificity,enhanced specificity to the lung cells,–
CCCCCCCCCCCCOCC(O)CN(CCCCCCCCN(CC(O)COCCCCCCCCCCCC)CC(O)COCCCCCCCCCCCC)CC(O)COCCCCCCCCCC (centres unmarked) [MB-205],–,–,superior internalization efficiency
CCCCCCCCCOCC(O)CN(CCN(CC(O)COCCCCCCCCC)CC(O)COCCCCCCCCC)CC(O)COCCCCCCCCC (centres unmarked) [MB-77],–,–,superior internalization efficiency
CCCCCCCCOCC(O)CN(CCOCCOCCN(CC(O)COCCCCCCCC)CC(O)COCCCCCCCC)CC(O)COCCCCCCCC (centres unmarked) [MB-212],enhanced lung specificity,enhanced specificity to the lung cells,superior internalization efficiency
CCCCCCCCOCC(O)CN(CCCCN(CC(O)COCCCCCCCC)CC(O)COCCCCCCCC)CC(O)COCCCCCCCC (centres unmarked) [MB-208],–,–,superior internalization efficiency
